Columns and labels:
[1] = biological target: T1, human σ2 receptor (TMEM97) (Homo sapiens, UniProt Q5BJF2); assay: biochemical; assay type: Expi293 membranes
[2] = biological target: T1, human σ2 receptor (TMEM97); assay: biochemical; assay type: Expi293 membranes; settings: read-out: % of control remaining

T1 sequence (Q5BJF2 whole entry): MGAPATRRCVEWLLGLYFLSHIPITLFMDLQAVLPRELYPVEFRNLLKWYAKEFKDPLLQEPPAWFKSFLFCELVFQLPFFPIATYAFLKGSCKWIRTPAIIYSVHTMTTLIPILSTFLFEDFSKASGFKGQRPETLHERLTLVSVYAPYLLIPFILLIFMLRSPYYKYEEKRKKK

SMILES	Ki [1] [nM]	remaining activity at 1 µM [2] [%]
CC1CCN(C2CCC(NC(=O)C(=O)Nc3ccc(C(C)C)cc3)CC2)CC1 (stereo not shown) [ZINC000131303503]	14.7	10.7
N/C(=N\Cc1ccc(F)cc1Br)NCC1CCC1 [ZINC000170908795]	6.7	0.9
O=C(CC1CCCC1)NC1CCN(C[C@H](O)C2CCCCC2)CC1 [ZINC000191344346]	11.7	8.7
Cc1ccc(CN2[C@@H]3CC[C@H]2[C@@H](NC(=O)c2cn(C)cn2)C3)c(C)c1 [ZINC001095312060]	–	69.4
C[C@H](C(=O)N[C@H]1C[C@H]2CC[C@@H]1N2CCn1cccn1)c1ccccc1F [ZINC001096194954]	–	118
O=C(N[C@@H]1CCN(CCC2CCCC2)C[C@@H]1O)C1(C(F)F)CCC1 [ZINC001099969021]	–	28.5
Cc1cc(C)nc(NC[C@@H](O)CNC(=O)[C@@H]2CCc3c[nH]nc3C2)n1 [ZINC001105862991]	–	76.1
C[C@H](C(=O)N[C@H]1C[C@H]2CC[C@@H]1N2CCOCC1CC1)c1cccs1 [ZINC001109713565]	–	28.7
O=C1CN(CC(=O)N[C@H](CNc2cc(F)ncn2)C2CC2)CCN1 [ZINC001109958062]	–	90.2
CN(C)S(=O)(=O)CCC(=O)N[C@H]1[C@@H]2CN(Cc3ccon3)C[C@@H]21 [ZINC001115282185]	–	109
CO[C@@H](CNC(=O)C(=O)N1C[C@@H]2C(=O)N(C)C(=O)[C@@H]2C1)CC(C)C [ZINC001119173847]	–	95.8
O=C(NCCN1CCNC1=O)C(=O)NC[C@H]1CCc2ccccc21 [ZINC001119470858]	–	107
CN(C[C@@H](O)CN(C)c1ncc(F)cn1)C(=O)CCc1cnn[nH]1 [ZINC001125309519]	–	88
CN1CCC[C@@H]1C(=O)NC[C@H]1CN(CCCC(C)(C)C)CCCO1 [ZINC001149399826]	–	96.4
C(=C\c1ccccc1)/CNc1ccc2c(n1)CCC2 [ZINC001156463732]	–	32.6
Cc1cc(C)cc(C2=CCN(CCC(=O)N3CCc4ccccc43)CC2)c1 [ZINC001168222793]	–	13.7
C[C@@H](C(=O)NCc1ccc(Cl)cc1)N1CCC(C(C)(C)C)CC1 [ZINC001169307444]	–	21.2
CCOCCNC(=O)CN1C[C@@H](O)[C@H](NC(=O)[C@@]23COC[C@@H]2C3)C1 [ZINC001193095852]	–	112
COc1ccc2c(c1)C[C@H](CN1CCCC[C@H]1CCC(=O)OC(C)(C)C)O2 [ZINC001195393353]	–	54.5
CCc1ccc(F)cc1C(=O)N1CCCN(CCOC(C)C)CC1 [ZINC001196417557]	–	71.9
Cc1cc(C(=O)N2CCCO[C@@H](CNCC(=O)NC3CC3)C2)n(C)n1 [ZINC001199969207]	–	124
CN(C)S(=O)(=O)N(C)CC(=O)N[C@@H]1C[C@H](NCCO)C12CCC2 [ZINC001202928172]	–	117
C[C@@H]1CN([C@H]2CCc3ccccc3NC2=O)C[C@H]1NC(=O)/C=C\C(C)(C)C [ZINC001206651458]	–	109
CCNS(=O)(=O)CCNC(=O)C(=O)N[C@@H](C)C1=CCN(C)CC1 [ZINC001261177261]	–	70.9
CN1C(=O)[C@H]2CN(C(=O)C(=O)NC3CCC(F)(F)CC3)C[C@H]2C1=O [ZINC001261948364]	–	90.8
CC[C@H]1CCN(CC(=O)Nc2cc(Cl)ccc2C#N)[C@H]1C [ZINC001307701283]	–	62.5
FC(F)(F)c1ccnc([C@H]2CCN(CCCc3ccc4c(c3)CCO4)C2)n1 [ZINC001308961074]	–	2.4
OC1(CN2CC(Cc3ccccc3C(F)(F)F)C2)CCC1 [ZINC001320149247]	–	14.7
COC(=O)N1CCC[C@H](NC(=O)C(=O)N2CC[C@@](O)(C3CC3)C2)C1 [ZINC001323717111]	–	95

Other lines, results leading:

Ki [1] [nM]	remaining activity at 1 µM [2] [%]	SMILES
–	99.2	COC(=O)[C@@H]1C[C@H](O)CN(C(=O)C(=O)N[C@H](C)C2CCOCC2)C1 [ZINC001326422624]
–	86.4	C[C@@H](CNC(=O)C(=O)NCc1nnn(C)n1)N(C)Cc1ccccc1 [ZINC001328800283]
–	222	COc1cccc2c1OC[C@H](NC(=O)C(=O)N[C@@H]1CC(=O)N(C)C1)C2 [ZINC001341791776]
–	93.3	O=C(Nc1ccc2c(=O)[nH]ccc2c1)C(=O)N1C[C@H](CO)[C@@H](O)C1 [ZINC001350153389]
–	94.8	CN(C[C@H]1CCCN1C)C(=O)[C@]1(C)CC(c2ccccc2Cl)=NO1 [ZINC001362573982]
–	78.6	O=C([C@@H]1CCc2nnc(O)n2C1)N1CC(CNC(=O)C(F)(F)F)C1 [ZINC001363211634]
–	104	O=S(=O)(N[C@@H]1CCc2nnnn2CC1)c1cnc2n1CCCC2 [ZINC001363999416]
–	109	COC[C@@H](O)CN1CC[C@H](NC(=O)c2c(C)c(C)nn(C)c2=O)C1 [ZINC001365986475]
–	111	O=C(CCn1cccn1)NCCN1CCN(CCn2cccn2)CC1 [ZINC001369886058]
–	102	CCC1(C(=O)NCC[C@@H]2CCN(Cc3nccn3C)C2)CCCC1 [ZINC001377717241]
–	71.1	Cc1ccnc(CN[C@@H](C)CCNC(=O)c2ccn(C(C)C)c2C)n1 [ZINC001381212829]
–	43.6	O=C(NCC1CN(CCC2CCCC2)C1)C1(c2cccnc2)CC1 [ZINC001391502525]
–	21.2	C[C@@H]1CCC[C@H](CCN(C)CCNC(=O)c2c3c(nn2C)CCC3)C1 [ZINC001399642198]
–	65.3	COc1ccc(C(=O)N(C)C[C@H](C)NCC2CCC(C)(C)CC2)nn1 [ZINC001403624658]
–	118	CC(=O)N[C@@H]1CCN(S(=O)(=O)c2cnn([C@@H]3CCOC3)c2)C1 [ZINC001413380655]
–	80.5	CCN1CCCC[C@H]1C(=O)NC[C@@H](O)CNC(=O)c1cnccn1 [ZINC001416718427]
–	130	CC(C)N1CC[C@H](CCNC(=O)c2cc(-c3cccnc3)on2)C1 [ZINC001418905447]
–	19.6	Cc1cc(C)nc(C(=O)NCCC2CCN(CCOC(C)C)CC2)c1 [ZINC001419404744]
–	78.5	COCC1(C(=O)N2CCC[C@@H](N(C)CC[C@H](C)F)C2)CC1 [ZINC001420054689]
–	103	Cc1cnc(CN2CC[C@@H](CCNC(=O)c3cncs3)C2)s1 [ZINC001437918206]
–	62.3	Cc1cc(C)c(/C=C\CN2CCC[C@@H](O)C2)cc1C [ZINC001474404955]
–	104	O=C(C[C@]1(O)CCCNC1)Nc1cn2cc(Br)ncc2n1 [ZINC001515357045]
–	117	O=C(OC[C@@H]1CCN1Cc1ccccc1)c1nccc2occc12 [ZINC001525937517]
–	19.6	Cc1cccc2c1CCN2C(=O)[C@@H]1CC[C@H]2CCCC[C@@H]2N1 [ZINC001579778746]
–	122	N[C@H](Cc1ccccn1)C(=O)NCc1ccccc1C(F)(F)F [ZINC001580410121]
–	112	C[C@@H]1CN(CC(=O)NCCCO[C@@H](C)c2ccccc2)[C@H](C)CCO1 [ZINC001655120594]
